# Columns and labels:
# Angiotensin II Receptor = experiment: AII receptor ligand-receptor binding assay (rat adrenal cortical microsomes, displacement of 3H-AII or 125I-AII); details: Table 7, 1 hour, room temperature
# Protocol: The hormone angiotensin II (AII) produces numerous biological responses (e.g. vasoconstriction) through stimulation of its receptors on cell membranes. For the purpose of identifying compounds such as AII antagonists which are capable of interacting with the AII receptor, a ligand-receptor binding assay was utilized for the initial screen. The assay was carried out according to the method described by [Glossmann et al., J. Biol. Chem., 249, 825 (1974)], but with some modifications. The reaction mixture contained rat adrenal cortical microsomes (source of AII receptor) in Tris buffer and 2 nM of ^3 H-AII or 0.05 nM ^125 I-AII with or without potential AII antagonist. This mixture was incubated for 1 hour at room temperature and the reaction was subsequently terminated by rapid filtration and rinsing through glass micro-fibre filter. Receptor-bound ^3 H-AII or ^125 I-AII trapped in filter was quantitated by scintillation counting. The inhibitory concentration (IC50) of potential AII antagonist which gives 50% displacement of the total specifically bound ^3 H-AII or ^125 I-AII is a measure of the affinity of such compound for the AII receptor.
# [1] = test system: awake rats made hypertensive by ligation of the left renal artery; experiment: Antihypertensive effects in renal hypertensive rats (left renal artery ligation); type: in vivo, rat; details: for Antihypertensive Effects in Renal Hypertensive Rats, Intravenous Activity: 3 mg/kg; for Antihypertensive Effects in Renal Hypertensive Rats, Oral Activity: 30 mg/kg
# Protocol: Blood pressure levels after treatment are compared to pretreatment levels to determine the antihypertensive effects of the compounds which were tested.
# [2] = test system: effects of AII on the blood pressure of pithed rats; details: cited from earlier work
# mammals and man = details: cited from earlier work
# [3] = test system: renal vasoconstrictor effect of indomethacin and meclofenamate in dogs; details: cited from earlier work
SMILES,IC50 (Angiotensin II Receptor),"Antihypertensive Effects in Renal Hypertensive Rats, Intravenous Activity [1]","Antihypertensive Effects in Renal Hypertensive Rats, Oral Activity [1]",other results
"CCCc1nc(-c2cccc3ccccc23)c(C=O)n1Cc1ccc(-c2ccccc2-c2nnn[nH]2)cc1 [Example 1, 4-(naphth-1-yl)-2-n-propyl-1-[(2'-(1H-tetrazol-5-yl)biphenyl-4-yl)methyl]imidazole-5-carboxaldehyde]",21 nM,+ (Significant decrease in blood pressure at 3.0 mg/kg or less),+ (Significant decrease in blood pressure at 30 mg/kg or less),–
CCCc1nc(-c2cc3ccccc3s2)c(C=O)n1Cc1ccc(-c2ccccc2-c2nn[nH]n2)cc1 [Example 7],29 nM,NA (Not active at 3 mg/kg or 30 mg/kg dosage tested),–,–
CCCc1nc(-c2ccc(F)c3ccccc23)c(C=O)n1Cc1ccc(-c2ccccc2-c2nn[nH]n2)cc1 [Example 8],170 nM,NA (Not active at 3 mg/kg or 30 mg/kg dosage tested),–,–
CCCc1nc(-c2ccc3c4c(cccc24)CC3)c(C=O)n1Cc1ccc(-c2ccccc2-c2nn[nH]n2)cc1 [Example 9],490 nM,NA (Not active at 3 mg/kg or 30 mg/kg dosage tested),–,–
CCCc1nc(-c2ccc3ccccc3c2)c(C=O)n1Cc1ccc(-c2ccccc2-c2nn[nH]n2)cc1 [Example 10],99 nM,NA (Not active at 3 mg/kg or 30 mg/kg dosage tested),NA (Not active at 3 mg/kg or 30 mg/kg dosage tested),–
CCCc1nc(-c2ccc3cc(OC)ccc3c2)c(C=O)n1Cc1ccc(-c2ccccc2-c2nn[nH]n2)cc1 [Example 11],160 nM,NA (Not active at 3 mg/kg or 30 mg/kg dosage tested),–,–
CCCc1nc(-c2cc3ccccc3c3ccccc23)c(C=O)n1Cc1ccc(-c2ccccc2-c2nn[nH]n2)cc1 [Example 24],170 nM,+ (Significant decrease in blood pressure at 3.0 mg/kg or less),NA (Not active at 3 mg/kg or 30 mg/kg dosage tested),–
CCCc1nc(-c2cc3ccccc3o2)c(C=O)n1Cc1ccc(-c2ccccc2-c2nn[nH]n2)cc1 [Example 41],110 nM,+ (Significant decrease in blood pressure at 3.0 mg/kg or less),+ (Significant decrease in blood pressure at 30 mg/kg or less),–
CCCc1nc(/C=C\c2cccc3ccccc23)c(C=O)n1Cc1ccc(-c2ccccc2-c2nn[nH]n2)cc1 [Example 95],13 nM,+ (Significant decrease in blood pressure at 3.0 mg/kg or less),+ (Significant decrease in blood pressure at 30 mg/kg or less),–
CCCc1nc(/C=C/c2cccc3ccccc23)c(C=O)n1Cc1ccc(-c2ccccc2-c2nn[nH]n2)cc1 [Example 96],560 nM,+ (Significant decrease in blood pressure at 3.0 mg/kg or less),–,–
CCCc1nc(/C=C\c2ccc3ccccc3c2)c(C=O)n1Cc1ccc(-c2ccccc2-c2nn[nH]n2)cc1 [Example 97],540 nM,+ (Significant decrease in blood pressure at 3.0 mg/kg or less),–,–
"CNCC(=O)N[C@@H](CCCN=C(N)N)C(=O)N[C@H](C(=O)N[C@@H](Cc1ccc(O)cc1)C(=O)N[C@H](C(=O)N[C@@H](Cc1cnc[nH]1)C(=O)N1CCC[C@H]1C(=O)N[C@@H](C)C(=O)O)C(C)C)C(C)C [Saralasin, [Sar^1, Ala^8] AII]",–,–,–,antagonism of AII effects on blood pressure [2]: one of the most potent competitive antagonists of the actions of AII; oral effectiveness (mammals and man; oral doses): oral doses being ineffective; duration of pharmacological effects (mammals and man; parenteral administration): relatively short-lasting; lowering of arterial pressure (mammals and man; when the elevated pressure is dependent on circulating AII): lower arterial pressure in mammals and man; pressor effects (mammals and man; when the pressure is not sustained by AII): generally elicits pressor effects when the pressure is not sustained by AII; effect on renal vasoconstriction by NSAID [3]: inhibit the renal vasoconstrictor effect of indomethacin and meclofenamate in dogs
C[C@H](CS)C(=O)N1CCC[C@H]1C(=O)O [captopril],–,–,–,effect on renal vasoconstriction by NSAID [3]: reverse the renal vasoconstrictor effect of indomethacin in dogs with non-hypotensive hemorrhage

# Reference: patent publication US5254546A, “Fused aryl substituted imidazole angiotensin II receptor inhibitors” (E. I. Du Pont de Nemours and Company, priority 1992, dated 1993)
